Earlier results as cited in patent EP2007386B1, “CAMPTOTHECIN-ANALOG WITH A NOVEL, FLIPPED LACTONE-STABLE, E-RING AND METHODS FOR MAKING AND USING SAME” (BIONUMERIK PHARMACEUTICALS, INC., priority 2006, dated 2007).
“Also recorded” adds a separate entry of the source. Where two headings read alike, the source gives them in different places.

Columns and labels:
[1] = clinical studies in Japan alone
[2] = et al
angiogenesis = details: mice cornea model; dose levels of 210 mg/kg
[3] = test system: advanced malignant melanoma; details: fifteen patients, 90-360 mg/m^2 repeated every 2 weeks
[4] = for Non-Hematologic Toxicity No. of Patients With: Cystitis / Non-Hematologic Toxicity No. of Patients With: Diarrhea: 5-day Course; for Number of Patients with Non-Hematologic Toxicity: Cystitis / Number of Patients with Non-Hematologic Toxicity: Diarrhea: Single-Dose Method
[5] = not given; remark: listed apart in the source
[6] = Rothenberg, 90mg QWx 4 Q42 days, 32 pts, 180mg/m^2/wk (50-180)
[7] = 15 mg/m^2x5, 9 patients treated
[8] = 17 mg/m^2x5, 5 patients treated
[9] = 20 mg/m^2x5, 10 patients treated
[10] = 5-Day Course (27 Patients Total), 4 wks
[11] = 5-Day Course (27 Patients Total), 8 wks
[12] = 5-Day Course (27 Patients Total), 12 wks
[13] = Single-Dose Method (34 Patients Total), 3 wks
[14] = Single-Dose Method (34 Patients Total), 6 wks
[15] = Single-Dose Method (34 Patients Total), 9 wks
[16] = Single-Dose Method (34 Patients Total), 12 wks

Structure (SMILES): CCc1c2c(nc3ccc(OC(=O)N4CCC(N5CCCCC5)CC4)cc13)-c1cc3c(c(=O)n1C2)COC(=O)[C@]3(O)CC [CPT-11, 7-ethyl-10-[4-(1-piperidino)-1-piperidino]carbonyloxycamptothecin]
- patient deaths directly attributable to drug toxicity [1]: approximately 100
- Tumor Type (responses) ([2]; Clavel, 90 min. QDx 3 Q21 Days, 37 pts, 115mg/m^2/d (33-115)): Breast (1 PR); also recorded: Mesothelioma
- Toxicity ([2]; Clavel, 90 min. QDx 3 Q21 Days, 37 pts, 115mg/m^2/d (33-115), * = Dose Limiting Toxicity): Neutropenia*; also recorded: diarrhea,; also recorded: vomiting,
- Tumor Type (responses) ([2]; Culine, 90 min. Q21 days, 59 pts, 150mg/m^2/wk (50-150)): Esophagus; also recorded: (1 PR) cervix; also recorded: (1 PR) renal; also recorded: (1 PR) Ovarian
- Toxicity ([2]; Culine, 90 min. Q21 days, 59 pts, 150mg/m^2/wk (50-150), * = Dose Limiting Toxicity): Fatigue; also recorded: Stomatitis; also recorded: Neutropenia*; also recorded: diarrhea*; also recorded: vomiting,; also recorded: Alopecia
- Tumor Type (responses) ([2]; Negoro, 30 min Infusion Weekly, 17 pts, 100mg/m^2 (50-150)): NS CLC (2 PRs)
- Toxicity ([2]; Negoro, 30 min Infusion Weekly, 17 pts, 100mg/m^2 (50-150), * = Dose Limiting Toxicity): neutropenia* and diarrhea* and N/V and alopecia, and Liver
- Tumor Type (responses) ([2]; Ohe, 120 hr CI Q3wks, 36 pts, 40mg/m^2/d (5-40)): None
- Toxicity ([2]; Ohe, 120 hr CI Q3wks, 36 pts, 40mg/m^2/d (5-40), * = Dose Limiting Toxicity): diarrhea*; also recorded: thrombocytopenia; also recorded: Anemia
- Toxicity [2, 6]: neutropenia,; also recorded: vomiting,; also recorded: Alopecia
- Tumor Type (responses) [2, 6]: Colon Ca
- Tumor Type (responses) ([2]; Rowinsky, 90 min Infusion Q21 day, 32 pts, 240mg/m^2 (100-345)): Colon Cancer (1 PR); also recorded: Cervix Ca
- Toxicity ([2]; Rowinsky, 90 min Infusion Q21 day, 32 pts, 240mg/m^2 (100-345), * = Dose Limiting Toxicity): Neutropenia*; also recorded: vomiting,; also recorded: diarrhea; also recorded: pain, flushing
- effect on neovascularization (angiogenesis): significant reduction of neovascularization

Structure (SMILES): CC[C@@]1(O)C(=O)OCc2c1cc1n(c2=O)Cc2cc3ccccc3nc2-1 [CPT sodium]
- patients with less pronounced transient tumor regression [3]: three
- patients with myelosuppression [3]: 11
- patients with a 50% or greater decrease in tumor diameter ([3]; rapid IV injection): None
- Cystitis, 5-Day Course (% of 27 Patients) ([4]; 5-Day Course, 27 patients, P<0.05): 48 (P<0.05) %
- Non-Hematologic Toxicity No. of Patients With: Cystitis ([4]; 11 mg/m^2x5, 2 patients treated): 1
- Non-Hematologic Toxicity No. of Patients With: Cystitis [4, 7]: 4
- Non-Hematologic Toxicity No. of Patients With: Diarrhea [4, 7]: 1
- Non-Hematologic Toxicity No. of Patients With: Cystitis [4, 8]: 2
- Non-Hematologic Toxicity No. of Patients With: Diarrhea [4, 8]: 4
- Non-Hematologic Toxicity No. of Patients With: Cystitis [4, 9]: 6
- Non-Hematologic Toxicity No. of Patients With: Diarrhea [4, 9]: 4
- Non-Hematologic Toxicity No. of Patients With: Diarrhea ([4]; 22 mg/m^2x5, 1 patient treated): 1
- Cystitis, Single Dose (% of 34 Patients) ([4]; Single Dose, 34 patients): 24%
- Number of Patients with Non-Hematologic Toxicity: Cystitis ([4]; 100 mg/m^2, 6 patients treated): 2
- Number of Patients with Non-Hematologic Toxicity: Cystitis ([4]; 110 mg/m^2, 2 patients treated): 1
- Number of Patients with Non-Hematologic Toxicity: Diarrhea ([4]; 110 mg/m^2, 2 patients treated): 1
- Number of Patients with Non-Hematologic Toxicity: Cystitis ([4]; 120 mg/m^2, 7 patients treated): 2
- Number of Patients with Non-Hematologic Toxicity: Diarrhea ([4]; 120 mg/m^2, 7 patients treated): 4
- Number of Patients with Non-Hematologic Toxicity: Cystitis ([4]; 180 mg/m^2, 9 patients treated): 3
- Number of Patients with Non-Hematologic Toxicity: Diarrhea ([4]; 180 mg/m^2, 9 patients treated): 2
- patients with dose limiting bladder toxicity (doses of 20 to 30 mg/m^2, fifteen patients, intravenous push): three
- additional patients with bladder toxicity (doses of 30 and 44 mg/m^2): two
- clinical benefit (eight patients with measurable disease, 5-day courses at dose levels associated with toxicity): No clinical benefit
- Objective Results: Stable (patients) (gastrointestinal cancer; [10]): 12
- Objective Results: Worse (patients) (gastrointestinal cancer; [10]): 14
- Objective Results: Improved (patients) (gastrointestinal cancer; 5-Day Course (27 Patients Total), 4 wks after start of therapy): 1
- Objective Results: Stable (patients) (gastrointestinal cancer; [11]): 7
- Objective Results: Worse (patients) (gastrointestinal cancer; [11]): 20
- Objective Results: Stable (patients) (gastrointestinal cancer; [12]): 6
- Objective Results: Worse (patients) (gastrointestinal cancer; [12]): 21
- Objective Results: Stable (patients) (gastrointestinal cancer; [13]): 17
- Objective Results: Worse (patients) (gastrointestinal cancer; [13]): 13
- Objective Results: Improved (patients) (gastrointestinal cancer; Single-Dose Method (34 Patients Total), 3 wks after start of therapy): 4
- Objective Results: Improved (patients) (gastrointestinal cancer; [14]): 2
- Objective Results: Stable (patients) (gastrointestinal cancer; [14]): 11
- Objective Results: Worse (patients) (gastrointestinal cancer; [14]): 21
- Objective Results: Improved (patients) (gastrointestinal cancer; [15]): 2
- Objective Results: Stable (patients) (gastrointestinal cancer; [15]): 8
- Objective Results: Worse (patients) (gastrointestinal cancer; [15]): 24
- Objective Results: Stable (patients) (gastrointestinal cancer; [16]): 6
- Objective Results: Worse (patients) (gastrointestinal cancer; [16]): 28
- patients with evidence of partial objective improvement (gastrointestinal cancer; after 2 months (8 or 9 weeks), of 61 patients): two
- patients who showed improvement (gastrointestinal cancer; at 3 months, of 61 patients): none

Structure (SMILES): CC[C@@]1(O)C(=O)OCc2c1cc1n(c2=O)Cc2cc3ccccc3nc2-1 [CPT, (S)-4-Ethyl-4-hydroxy-1 H-pyrano[3',4':6,7]indolizino[1,2-b]quinoline-3,14(4H,12H)-dione]
- mean urine recovery of CPT ([5]; excluding the five patients with impaired excretion): 22.8%
- mean urine recovery of CPT ([5]; over the first 48 hours, IV camptothecin sodium 0.5 to 10.0 mg/kg): 17.4%
